According to US20250011288A1 (BRISTOL-MYERS SQUIBB COMPANY, priority 2021, published 2025):

Target: T1, human RXFP1 (Homo sapiens, UniProt Q9HBX9)
T1 construct: expressed in transfected cells
T1 sequence (Q9HBX9 1-757): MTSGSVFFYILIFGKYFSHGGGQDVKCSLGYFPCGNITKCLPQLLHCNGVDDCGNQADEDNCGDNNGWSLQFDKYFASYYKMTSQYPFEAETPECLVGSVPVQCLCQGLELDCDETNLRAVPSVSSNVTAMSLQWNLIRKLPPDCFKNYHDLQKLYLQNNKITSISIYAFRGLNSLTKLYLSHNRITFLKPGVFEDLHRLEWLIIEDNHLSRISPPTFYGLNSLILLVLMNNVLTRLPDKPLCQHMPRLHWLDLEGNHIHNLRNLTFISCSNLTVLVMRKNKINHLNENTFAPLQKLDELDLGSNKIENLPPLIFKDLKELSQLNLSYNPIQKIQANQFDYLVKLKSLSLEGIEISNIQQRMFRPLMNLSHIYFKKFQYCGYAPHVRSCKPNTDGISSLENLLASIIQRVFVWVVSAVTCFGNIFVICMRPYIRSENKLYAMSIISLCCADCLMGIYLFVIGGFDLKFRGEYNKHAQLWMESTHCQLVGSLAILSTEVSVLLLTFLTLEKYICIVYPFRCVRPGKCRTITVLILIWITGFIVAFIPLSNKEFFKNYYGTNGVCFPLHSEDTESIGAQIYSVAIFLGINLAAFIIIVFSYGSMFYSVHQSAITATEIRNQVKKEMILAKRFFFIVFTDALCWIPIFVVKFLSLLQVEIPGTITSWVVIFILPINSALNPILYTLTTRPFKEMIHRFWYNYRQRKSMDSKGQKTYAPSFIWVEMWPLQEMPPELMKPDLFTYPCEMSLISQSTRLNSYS
Assay: human RXFP1 (hRXFP1) HEK293 cAMP assay (HTRF)
Assay type: cell-based
Conditions: HEK293 cells stably expressing human RXFP1, 30 min at room temperature
Procedure, shortened: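 HEK293 cells stably expressing human RXFP1 (1500 cells/well) in HBSS/20 mM HEPES/0.05% BSA/0.5 mM IBMX, treated with compound (0.010 nM–50 µM final, 2% DMSO) for 30 min at room temperature. Intracellular cAMP read by HTRF; potency from 4-parameter logistic fit of cAMP versus concentration.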

Compound | EC50
CCCc1cnc(OC)c(C(=O)N[C@@H]2C3CCC(/C3=C/C(F)(F)F)[C@@H]2C(=O)Nc2ccc(F)c(C(F)(F)F)c2)c1 (stereo partly drawn) [Example 51, N-[(2R,3S,7Z)-3-{[4-fluoro-3-(trifluoromethyl)phenyl]carbamoyl}-7-(2,2,2-trifluoroethylidene)bicyclo[2.2.1]heptan-2-yl]-2-methoxy-5-propylpyridine-3-carboxamide] | 1300 nM
CCCc1cnc(OC)c(C(=O)N[C@@H]2C3CCC(/C3=C/C(F)(F)F)[C@@H]2C(=O)Nc2ccc(F)c(C(F)(F)F)c2)n1 (stereo partly drawn) [Example 52, N-[(2R,3S,7Z)-3-{[4-fluoro-3-(trifluoromethyl)phenyl]carbamoyl}-7-(2,2,2-trifluoroethylidene)bicyclo[2.2.1]heptan-2-yl]-3-methoxy-6-propylpyrazine-2-carboxamide] | 1300 nM
COc1nn(-c2cccc(C(=O)O)c2)cc1C(=O)N[C@@H]1C2CCC(/C2=C/C(F)(F)F)[C@@H]1C(=O)Nc1ccc(F)c(C(F)(F)F)c1 (stereo partly drawn) [Example 53, 3-(4-{[(2R,3S,7Z)-3-{[4-fluoro-3-(trifluoromethyl)phenyl]carbamoyl}-7-(2,2,2-trifluoroethylidene)bicyclo[2.2.1]heptan-2-yl]carbamoyl}-3-methoxy-1H-pyrazol-1-yl)benzoic acid] | 1600 nM
Cc1nc(O)c(C(=O)N[C@H]2[C@@H](C(=O)Nc3ccc(F)c(C(F)(F)F)c3)[C@H]3CC[C@@H]2/C3=C\C(F)(F)F)cc1-c1cccc(C(=O)O)c1 [Example 56, 3-(5-(((1R,2R,3S,4R,Z)-3-((4-fluoro-3-(trifluoromethyl)phenyl)carbamoyl)-7-(2,2,2-trifluoroethylidene)bicyclo[2.2.1]heptan-2-yl)carbamoyl)-6-hydroxy-2-methylpyridin-3-yl)benzoic acid] | 2800 nM
CC(C)(O)COc1ccc2c(C(=O)N[C@@H]3C4CCC(/C4=C/C(F)(F)F)[C@@H]3C(=O)Nc3ccc(F)c(C(F)(F)F)c3)nn(C(F)F)c2c1 (stereo partly drawn) [Example 57, 1-(difluoromethyl)-N-[(2R,3S,7Z)-3-{[4-fluoro-3-(trifluoromethyl)phenyl]carbamoyl}-7-(2,2,2-trifluoro-ethylidene)bicyclo[2.2.1]heptan-2-yl]-6-(2-hydroxy-2-methylpropoxy)-1H-indazole-3-carboxamide] | 3900 nM

Stronger by EC50, values ahead:

EC50 | Compound
153 nM | COc1ncc(C#CCO)cc1C(=O)N[C@@H]1C2CCC(/C2=C/C(F)(F)F)[C@@H]1C(=O)Nc1ccc(F)c(C(F)(F)F)c1 (stereo partly drawn) [Example 49, N-[(2R,3S,7Z)-3-{[4-fluoro-3-(trifluoromethyl)phenyl]carbamoyl}-7-(2,2,2-trifluoroethylidene)bicyclo[2.2.1]heptan-2-yl]-5-(3-hydroxyprop-1-yn-1-yl)-2-methoxypyridine-3-carboxamide]
129 nM | COc1ncc(CCCO)cc1C(=O)N[C@@H]1C2CCC(/C2=C/C(F)(F)F)[C@@H]1C(=O)Nc1ccc(F)c(C(F)(F)F)c1 (stereo partly drawn) [Example 50, N-[(2R,3S,7Z)-3-{[4-fluoro-3-(trifluoromethyl)phenyl]carbamoyl}-7-(2,2,2-trifluoroethylidene)bicyclo[2.2.1]heptan-2-yl]-5-(3-hydroxypropyl)-2-methoxypyridine-3-carboxamide]
1200 nM | COc1nn(-c2cccc(C(=O)O)c2)cc1C(=O)N[C@@H]1C2CCC(/C2=C/c2ccccc2)[C@@H]1C(=O)Nc1ccc(F)c(C(F)(F)F)c1 (stereo partly drawn) [Example 54, 3-(4-{[(2R,3S,7Z)-3-{[4-fluoro-3-(trifluoromethyl)phenyl]carbamoyl}-7-(phenylmethylidene)bicyclo [2.2.1]heptan-2-yl]carbamoyl}-3-methoxy-1H-pyrazol-1-yl)benzoic acid]
360 nM | N#Cc1ccc2c(c1)CCc1c(C(=O)N[C@H]3[C@@H](C(=O)Nc4ccc(F)c(C(F)(F)F)c4)[C@H]4CC[C@@H]3/C4=C\C(F)(F)F)nn(CC(F)F)c1-2 [Example 55, 7-cyano-1-(2,2-difluoroethyl)-N-((1R,2R,3S,4R,Z)-3-((4-fluoro-3-(trifluoromethyl)phenyl)carbamoyl)-7-(2,2,2-trifluoroethylidene)bicyclo[2.2.1]heptan-2-yl)-4,5-dihydro-1H-benzo[g]indazole-3-carboxamide]
